target: T1, human α7 nAChR (Homo sapiens, UniProt P36544); assay: Evaluation of PAM activity with human α7 nACh receptor stably expressing cells (aequorin luminescence, FDSS7000); assay type: cell-based; conditions: test compound 10 μmol/L; ACh added at EC20; ratio of RLU (Max-Min) of test wells to control wells
T1 construct: expressed in transfected cells; host or cells: GH4C1 cells derived from rat pituitary (ATCC CCL-82.2)
Description: Human α7 nAChR stably expressing cells were generated and cultured. In detail, GH4C1 cells derived from rat pituitary (cat#CCL-82.2, ATCC, USA) were used as a host cell. PcDNA3.1Zeo vector containing a nucleotide sequence encoding a protein GenBank BAC81731 and pcDNA3.1 vector containing human α7 nAChR gene (cat#V790-20, invitrogen, Carlsbad, Calif., USA) were transfected to the cells to give aequorins and human α7 nAChR stably expressing cells respectively. The aequorins and human α7 nAChR stably expressing cells were screened with Zeocin (cat#R25001, invitrogen, Carlsbad, Calif., USA) and Geneticin (cat #10131-027, invitrogen, Carlsbad, Calif., USA) respectively.
The cells were cultured in F-10 Nutrient Mixture (Ham) medium (cat #11550-043, invitrogen, Carlsbad, Calif., USA) containing 2.5% fetal bovine serum (cat #2917354, ICN Biomedicals, Inc, USA), 15% inactivated horse serum (cat #26050-088, invitrogen, Carlsbad, Calif., USA), 1 μg/mL Geneticin, and 5 μg/mL Puromycin (cat #14861-84, invitrogen, Carlsbad, Calif., USA), in a Collagen Type 1-coated dish (cat #4030-010, iwaki, Tokyo, Japan). During the culture, the medium was replaced with fresh medium in every 2 to 3 days, and the cells were treated with TrypLE Express (cat #45604-021, invitrogen, Carlsbad, Calif., USA) to collect them in every 7 days. Thus, the cells were subcultured.
7 Days after subculturing, the cells were treated with TrypLE Express to collect them when they were about 80% confluent. The cells were suspended in a reaction medium containing Hanks (cat #14065-056, invitrogen, Carlsbad, Calif., USA)/20 mmol/L Hepes (cat #15630-080, invitrogen, Carlsbad, Calif., USA), Buffer (pH 7.4), F-10 Nutrient Mixture (Ham), and 0.1 mg/mL Geneticin, and the suspension was seeded in a 384-well plate (cat #781090, Greiner, Germany) at 20000 cells/25 μL per well.
On the next day after seeding, Viviren (cat#E649X, Promega, Madison, Wis., USA) was added to the medium so that the final concentration could be 4 μmol/L (15 μL/well). The plates were centrifuged and then placed in the dark for 4 hours at room temperature.
Each of the test compounds was dissolved in DMSO to prepare each test sample at a concentration of 1000-fold the final concentration. To the solution was added Hanks/20 mM HEPES/0.2% BSA (cat#A3803, Sigma, St. Louis, Mo., USA), and the concentration was adjusted to 6-fold the final concentration.
FDSS7000 (Hamamatsu Photonics) was used to detect the luminescence signal evoked by α7 nAChR stimulation. The cells and a luminescent substrate were put on a plate, and the test sample was added thereto. […] After the addition of ACh, the luminescence signal (the central wavelength: 465 nm) was measured for 138 seconds to calculate RLU (Max-Min). The ratio of the RLU (Max-Min) of the test-compound-containing wells to that of the control wells was defined as PAM activity.

T1 sequence (P36544 23-502): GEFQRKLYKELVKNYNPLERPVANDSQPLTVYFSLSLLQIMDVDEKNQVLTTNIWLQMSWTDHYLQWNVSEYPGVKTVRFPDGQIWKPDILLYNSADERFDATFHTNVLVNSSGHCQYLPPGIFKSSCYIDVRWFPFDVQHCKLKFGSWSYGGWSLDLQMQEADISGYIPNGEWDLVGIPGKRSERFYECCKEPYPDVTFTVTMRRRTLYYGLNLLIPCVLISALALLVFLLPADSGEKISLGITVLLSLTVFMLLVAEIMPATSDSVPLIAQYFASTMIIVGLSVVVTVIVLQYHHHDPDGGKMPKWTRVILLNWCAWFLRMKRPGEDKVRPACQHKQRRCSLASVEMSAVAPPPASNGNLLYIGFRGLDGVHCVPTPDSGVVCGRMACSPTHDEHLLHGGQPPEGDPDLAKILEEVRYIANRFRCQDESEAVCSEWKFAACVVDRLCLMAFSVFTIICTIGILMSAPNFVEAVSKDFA

Structure (SMILES)	α7PAM (%) @ 10 μmol/L
O=C(Nc1ccc(C(F)(F)F)nc1)N1CCC(n2ncc3cc(C4CC4)ccc32)CC1 [Example 187]	220%
CO[C@H]1CC[C@@H](NC(=O)N2CCC(n3ncc4c(C5CC5)cccc43)CC2)CC1 [Example 160]	207%
CCOc1cccc2c1cnn2C1CCN(C(=O)NC2CCC(F)(F)CC2)CC1 [Example 192]	699%
[2H]C([2H])([2H])Oc1nn(C2CCN(C(=O)NC3CCOCC3)CC2)c2ccc(C(F)(F)F)cc12 [Example 309]	406%
Cc1c(C2CC2)ccc2c1cnn2C1CCN(C(=O)NC2CCC(F)(F)CC2)CC1 [Example 276]	1351%
CCc1ccc2c(cnn2C2CCN(C(=O)C3CCC(OC)CC3)CC2)c1 (stereo not drawn) [Example 117]	209%
Cc1ccc2c(cnn2C2CCN(C(=O)NC3CCCC3)CC2)c1 [Example 7]	1044%
O=C(C1CCC(F)(F)CC1)N1CCC(n2ncc3cc(F)ccc32)CC1 [Example 134]	237%
CCOc1ccc2c(cnn2C2CCN(C(=O)C3CCCCC3)CC2)c1 [Example 109]	267%
COCC1CCC(NC(=O)N2CCC(n3ncc4cc(C5CC5)ccc43)CC2)CC1 (stereo not drawn) [Example 221]	1942%
CCc1ccc2c(cnn2[C@H]2CC[C@@H](C(=O)NC3CCCC3)CC2)c1 [Example 128]	429%
CCc1cnc2c(cnn2C2CCN(C(=O)NC3CCC(F)(F)CC3)CC2)c1 [Example 99]	755%
COCc1cccc2c1cnn2C1CCN(C(=O)NC2CCC(F)(F)CC2)CC1 [Example 166]	711%
CCOc1ccc2c(cnn2C2CCN(C(=O)NC3CCC(F)(F)CC3)CC2)c1C [Example 281]	197%
COC(C)c1ccc2c(cnn2C2CCN(C(=O)N[C@H]3CC[C@H](OC)CC3)CC2)c1 (stereo partly drawn) [Example 245]	182%
CCOc1c(C)ccc2c1cnn2C1CCN(C(=O)NC2CCOCC2)CC1 [Example 273]	341%
CCc1ccc2c(c1)c(OC)nn2C1CCN(C(=O)NC2CCC(F)(F)CC2)CC1 [Example 149]	1053%
CCOc1c(CC)ccc2c1cnn2C1CCN(C(=O)NC2CCOCC2)CC1 [Example 274]	618%
Cc1c(Br)ccc2c1cnn2C1CCN(C(=O)NC2CCC(F)(F)CC2)CC1 [Example 286]	825%
O=C(NC1CCC(F)(F)CC1)N1CCC(n2ncc3c(C(F)(F)F)cccc32)CC1 [Example 169]	359%
COc1c(C)ccc2c1cnn2C1CCN(C(=O)NC2CCOCC2)CC1 [Example 268]	361%
O=C(NC1CC1)N1CCC(n2ncc3cc(C4CC4)ccc32)CC1 [Example 176]	187%
CCc1nn(C2CCN(C(=O)N[C@H]3CC[C@H](OC)CC3)CC2)c2ccc(OC)cc12 [Example 240]	833%
COC(C)Cc1ccc2c(cnn2C2CCN(C(=O)N[C@H]3CC[C@H](OC)CC3)CC2)c1 (stereo partly drawn) [Example 247]	353%

Structure (SMILES)	α7PAM (%) @ 10 μmol/L
Cc1ccc2c(cnn2C2CCN(C(=O)C3CCCCC3)CC2)c1 [Example 105]	338%
COC(C)c1c(C)ccc2c1cnn2C1CCN(C(=O)N[C@H]2CC[C@H](OC)CC2)CC1 (stereo partly drawn) [Example 233]	307%
CCc1nn(C2CCN(C(=O)NC3CCOCC3)CC2)c2ccc(OC)cc12 [Example 244]	324%
CCOc1nn(C2CCN(C(=O)NC3CCCC3)CC2)c2ccc(CC)cc12 [Example 56]	676%
O=C(NC1CCOCC1)N1CCC(n2ncc3c(OC(F)(F)F)cccc32)CC1 [Example 304]	380%
[2H]C([2H])([2H])O[C@H]1CC[C@H](NC(=O)N2CCC(n3ncc4cc(OC(F)F)ccc43)CC2)CC1 [Example 326]	1251%
Cc1ccc2c(c1)c(OC(C)C)nn2C1CCN(C(=O)NC2CCOCC2)CC1 [Example 208]	328%
CO[C@H]1CC[C@@H](NC(=O)N2CCC(n3ncc4cc(C5CC5)ccc43)CC2)CC1 [Example 189]	257%
CCc1cccc2c1cnn2C1CCN(C(=O)N[C@H]2CC[C@H](OC(F)F)CC2)CC1 [Example 159]	187%
COC1CCC(NC(=O)N2CCC(n3nc(C)c4cc(C)ccc43)CC2)CC1 (stereo not drawn) [Example 89]	1506%
COc1nn(C2CCN(C(=O)NC3CCOCC3)CC2)c2ccc(C(F)(F)F)cc12 [Example 266]	448%
CCOc1nn(C2CCN(C(=O)NC3CCC(OC)CC3)CC2)c2ccc(CC)cc12 (stereo not drawn) [Example 57]	382%
COc1ccc2c(c1)c(C1=CCOCC1)nn2C1CCN(C(=O)N[C@H]2CC[C@H](OC)CC2)CC1 [Example 260]	428%
CC(C)Oc1cccc2c1cnn2C1CCN(C(=O)NC2CCC(F)(F)CC2)CC1 [Example 183]	342%
[2H]C([2H])([2H])c1ccc2c(cnn2C2CCN(C(=O)NC3CCC(F)(F)CC3)CC2)c1 [Example 311]	1393%
CC(C)Oc1ccc2c(cnn2C2CCN(C(=O)NC3CCCC3)CC2)c1 [Example 49]	429%
CC1(C)CC(NC(=O)N2CCC(n3ncc4cc(C5CC5)ccc43)CC2)CCO1 (stereo not drawn) [Example 210]	209%
CO[C@H]1CC[C@H](NC(=O)N2CCC(n3ncc4c(C)c(OC(F)F)ccc43)CC2)CC1 [Example 293]	525%
O=C(NC1CCC(F)(F)CC1)N1CCC(n2ncc3c(OC(F)F)cccc32)CC1 [Example 201]	370%
COCCCc1ccc2c(cnn2C2CCN(C(=O)NC3CCCC3)CC2)c1 [Example 31]	1191%
O=C(NC1CCC(F)(F)CC1)N1CCC(n2ncc3c(C4CC4)cccc32)CC1 [Example 161]	567%
COCc1nn(C2CCN(C(=O)NC3CCCC3)CC2)c2ccc(C)cc12 [Example 67]	436%
CCc1cnc2c(cnn2C2CCN(C(=O)NC3CCOCC3)CC2)c1 [Example 101]	338%
CCc1ccc2c(c1)c(OC(C)C)nn2C1CCN(C(=O)NC2CCC(F)(F)CC2)CC1 [Example 62]	653%

same assay, conditions: test compound 10 μmol/L; ACh added at EC20; ratio of RLU (Max-Min) of test wells to control wells; read-out: α7PAM (%) @ 10 μmol/L

Structure (SMILES)	activity at 10 µM
CO[C@H]1CC[C@H](NC(=O)N2CCC(n3ncc4c(C)c(C5CC5)ccc43)CC2)CC1 [Example 277, 4-(5-cyclopropyl-4-methyl-1H-indazol-1-yl)-N-(trans-4-methoxycyclohexyl)piperidine-1-carboxamide]	729%
CCOc1nn(C2CCN(C(=O)NC3CCOCC3)CC2)c2ccc(CC)cc12 [Example 2, 4-(3-ethoxy-5-ethyl-1H-indazol-1-yl)-N-(tetrahydro-2H-pyran-4-yl)piperidine-1-carboxamide]	625%
[2H]C([2H])([2H])c1ccc2c(cnn2C2CCN(C(=O)N[C@H]3CC[C@H](OC)CC3)CC2)c1 [Example 144, N-(trans-4-methoxycyclohexyl)-4-[5-(^2H3)methyl-1H-indazol-1-yl]piperidine-1-carboxamide]	637%
O=C(NC1CCC(F)(F)CC1)N1CCC(n2ncc3cc(-c4ccc(F)cc4)ccc32)CC1 [Example 70, N-(4,4-difluorocyclohexyl)-4-(5-(4-fluorophenyl)-1H-indazol-1-yl)piperidine-1-carboxamide]	719%
CCOc1ccc2c(cnn2C2CCN(C(=O)C3CCC(F)(F)CC3)CC2)c1 [Example 3, (4,4-difluorocyclohexyl)(4-(5-ethoxy-1H-indazol-1-yl)piperidin-1-yl)methanone]	512%
O=C(NC1CCC1)N1CCC(n2ncc3cc(C(F)(F)F)ccc32)CC1 [Example 298, N-cyclobutyl-4-[5-(trifluoromethyl)-1H-indazol-1-yl]piperidine-1-carboxamide]	315%

Reference: patent US8765786B2, “1-substituted indazole derivative” (Dainippon Sumitomo Pharma Co., Ltd., priority 2012, dated 2014)
